Reference: ChEMBL document CHEMBL5614426 (J Med Chem, 2024)

Legend:
[1] = target: T1, Histone-lysine N-methyltransferase NSD2 (Homo sapiens, UniProt O96028); test: Inhibition of recombinant human NSD2 (941 to 1240 residues) using unmethylated histone H3 as substrate incubated for 40 mins in the presence of SAM and nucleosomes by AlphaLISA method
T1 sequence (O96028 whole entry): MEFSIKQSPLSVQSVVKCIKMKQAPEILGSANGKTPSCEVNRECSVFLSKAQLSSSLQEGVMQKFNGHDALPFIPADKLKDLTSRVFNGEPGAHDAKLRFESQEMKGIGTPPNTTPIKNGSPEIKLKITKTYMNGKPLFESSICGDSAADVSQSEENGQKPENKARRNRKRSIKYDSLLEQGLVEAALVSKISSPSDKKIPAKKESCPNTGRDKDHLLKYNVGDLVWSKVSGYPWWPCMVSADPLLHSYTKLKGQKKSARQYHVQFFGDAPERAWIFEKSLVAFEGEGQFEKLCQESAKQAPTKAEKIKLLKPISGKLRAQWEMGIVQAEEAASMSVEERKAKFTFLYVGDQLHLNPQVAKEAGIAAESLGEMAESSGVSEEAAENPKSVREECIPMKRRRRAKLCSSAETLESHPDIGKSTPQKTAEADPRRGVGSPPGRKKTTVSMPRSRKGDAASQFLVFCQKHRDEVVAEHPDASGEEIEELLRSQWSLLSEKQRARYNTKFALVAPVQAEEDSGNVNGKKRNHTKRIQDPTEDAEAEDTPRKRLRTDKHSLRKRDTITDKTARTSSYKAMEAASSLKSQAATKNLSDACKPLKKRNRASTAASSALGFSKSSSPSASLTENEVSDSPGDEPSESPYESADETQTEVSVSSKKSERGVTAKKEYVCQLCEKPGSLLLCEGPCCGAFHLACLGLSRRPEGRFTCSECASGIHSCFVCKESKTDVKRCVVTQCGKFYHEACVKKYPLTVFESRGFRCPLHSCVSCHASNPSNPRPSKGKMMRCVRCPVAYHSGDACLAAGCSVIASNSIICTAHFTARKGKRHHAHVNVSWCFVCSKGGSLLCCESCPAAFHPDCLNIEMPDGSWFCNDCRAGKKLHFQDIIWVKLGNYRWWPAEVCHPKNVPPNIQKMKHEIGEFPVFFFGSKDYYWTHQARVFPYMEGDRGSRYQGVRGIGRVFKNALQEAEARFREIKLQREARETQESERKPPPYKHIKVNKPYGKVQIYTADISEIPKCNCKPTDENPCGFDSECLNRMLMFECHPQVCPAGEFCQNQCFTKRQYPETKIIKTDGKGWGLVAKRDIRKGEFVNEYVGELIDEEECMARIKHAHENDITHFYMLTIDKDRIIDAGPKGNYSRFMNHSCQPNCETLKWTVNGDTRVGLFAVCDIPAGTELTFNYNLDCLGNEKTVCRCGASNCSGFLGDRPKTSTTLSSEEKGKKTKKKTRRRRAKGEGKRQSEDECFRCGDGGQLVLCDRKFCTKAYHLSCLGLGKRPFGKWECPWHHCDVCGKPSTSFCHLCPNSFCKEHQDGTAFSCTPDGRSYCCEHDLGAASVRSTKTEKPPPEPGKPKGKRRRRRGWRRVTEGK

[2] = target: T2, Histone-lysine N-methyltransferase EHMT2 (Homo sapiens) (UniProt Q96KQ7); test: Inhibition of G9a (unknown origin) at 10 uM by AlphaLISA assay relative to control
T2 sequence (whole entry): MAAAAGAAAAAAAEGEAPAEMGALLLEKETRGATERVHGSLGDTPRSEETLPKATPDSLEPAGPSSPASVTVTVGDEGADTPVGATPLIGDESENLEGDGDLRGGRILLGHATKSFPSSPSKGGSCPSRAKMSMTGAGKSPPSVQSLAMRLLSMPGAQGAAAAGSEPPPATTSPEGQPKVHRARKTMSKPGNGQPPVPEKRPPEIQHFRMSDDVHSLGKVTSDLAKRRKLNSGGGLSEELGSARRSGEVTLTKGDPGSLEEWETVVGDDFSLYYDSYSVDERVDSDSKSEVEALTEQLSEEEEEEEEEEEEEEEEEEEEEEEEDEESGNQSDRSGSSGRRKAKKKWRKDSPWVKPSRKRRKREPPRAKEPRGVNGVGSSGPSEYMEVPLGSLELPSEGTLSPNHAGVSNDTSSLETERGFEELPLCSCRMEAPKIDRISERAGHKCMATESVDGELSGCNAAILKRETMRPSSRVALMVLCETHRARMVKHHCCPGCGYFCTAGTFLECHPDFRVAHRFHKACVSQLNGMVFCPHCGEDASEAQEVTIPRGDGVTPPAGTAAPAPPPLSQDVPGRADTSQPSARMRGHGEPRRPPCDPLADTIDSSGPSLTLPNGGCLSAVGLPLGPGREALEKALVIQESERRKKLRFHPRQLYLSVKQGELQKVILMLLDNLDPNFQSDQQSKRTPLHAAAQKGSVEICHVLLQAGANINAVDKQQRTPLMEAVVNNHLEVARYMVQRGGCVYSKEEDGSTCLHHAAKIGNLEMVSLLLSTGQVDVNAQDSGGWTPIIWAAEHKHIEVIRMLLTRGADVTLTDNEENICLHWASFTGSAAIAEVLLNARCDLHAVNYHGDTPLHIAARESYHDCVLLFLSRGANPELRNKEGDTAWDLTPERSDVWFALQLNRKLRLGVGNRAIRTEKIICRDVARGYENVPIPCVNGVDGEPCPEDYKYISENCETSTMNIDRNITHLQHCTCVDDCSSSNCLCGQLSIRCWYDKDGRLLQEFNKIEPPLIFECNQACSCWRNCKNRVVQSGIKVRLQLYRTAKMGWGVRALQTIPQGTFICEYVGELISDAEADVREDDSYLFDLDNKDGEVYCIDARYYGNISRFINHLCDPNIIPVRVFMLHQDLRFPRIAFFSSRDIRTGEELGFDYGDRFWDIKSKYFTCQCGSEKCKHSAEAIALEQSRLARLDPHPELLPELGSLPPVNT

[3] = target: T2, Histone-lysine N-methyltransferase EHMT2 (Homo sapiens); test: Inhibition of G9a (unknown origin) at 1 uM by AlphaLISA assay relative to control

IC50 [1] [µM] | inhibition [2] [%] | inhibition [3] [%] | Compound
0.06 |  |  | COc1cc2c(NC3CCN(C(C)C)CC3)nc(C#N)nc2cc1O
1.41 |  |  | COc1cc2nc(C#N)nc(NC3CCNCC3)c2cc1OC
0.569 |  |  | CCCN1CCC(Nc2nc(C#N)nc3cc(OC)c(OC)cc23)CC1
> 5 | 99.2 | 98 | COc1cc2nc(N3CCCCC3)nc(NC3CCN(Cc4ccccc4)CC3)c2cc1OC
1.55 | 99.6 | 99.1 | COc1cc2nc(N)nc(NC3CCN(Cc4ccccc4)CC3)c2cc1OC
2.78 |  |  | COc1cc2nc(C#N)nc(NC3CCN(C(C)=O)CC3)c2cc1OC
1.51 | 99.1 | 99.6 | COc1cc2nc(N(C)C)nc(NC3CCN(Cc4ccccc4)CC3)c2cc1OC
1.51 | 99.4 | 99.5 | CNc1nc(NC2CCN(Cc3ccccc3)CC2)c2cc(OC)c(OC)cc2n1
> 5 | 98.5 | 98.7 | COc1cc2nc(N3CCOCC3)nc(NC3CCN(Cc4ccccc4)CC3)c2cc1OC
0.038 |  |  | COc1cc2c(NC3CCN(C(C)C)CC3)nc(C#N)nc2cc1OCCCN1CCC(F)(F)C1
0.243 |  |  | CC#CC(=O)NC12CC(NC3=C(Cl)C(=O)c4ncccc4C3=O)(C1)C2
1.41 | 95.4 | 34.8 | COc1cc2nc(CN)nc(NC3CCN(Cc4ccccc4)CC3)c2cc1OC
4.57 |  |  | COc1cc2nc(C#N)nc(NC3CCCCC3)c2cc1OC
0.032 |  |  | COc1cc2c(NC3CCN(C(C)C)CC3)nc(C#N)nc2cc1OCCCN1CCC(F)(F)CC1
1.51 |  |  | CCN1CCC(Nc2nc(C#N)nc3cc(OC)c(OC)cc23)CC1
3.15 |  |  | COc1cc2nc(C#N)nc(Nc3ccc(N4CCN(C)CC4)cc3)c2cc1OC
2.52 |  |  | COc1cc2nc(C#N)nc(OC3CCN(C)CC3)c2cc1OC
 | 5.6 | 2.8 | COc1cc2nc(C#N)nc(NC3CCN(Cc4ccccc4)CC3)c2cc1OC

IC50 [1] [µM] | inhibition [2] [%] | inhibition [3] [%] | Compound
0.045 |  |  | COc1cc2nc(C#N)nc(NC3CCN(C4CC4)CC3)c2cc1OC
2.43 |  |  | COc1cc2nc(C#N)nc(NCC3CCN(C)CC3)c2cc1OC
1.45 | 82.4 | 27.4 | COc1cc2ncnc(NC3CCN(Cc4ccccc4)CC3)c2cc1OC
1.73 | 98.8 | 98.3 | COc1cc2nc(N3CCCN(C)CC3)nc(NC3CCN(Cc4ccccc4)CC3)c2cc1OC
3.33 |  |  | COc1cc2nc(C#N)nc(NC3CCN(C(=O)OC(C)(C)C)CC3)c2cc1OC
0.049 |  |  | COc1cc2c(NC3CCN(C(C)C)CC3)nc(C#N)nc2cc1OCc1ccccc1
4.3 |  |  | COc1cc2nc(C#N)nc(N3CCN(C)CC3)c2cc1OC
0.204 |  |  | COc1cc2nc(C#N)nc(NC3CCN(C)CC3)c2cc1OC
0.085 |  |  | COc1ccc2nc(C#N)nc(NC3CCN(C(C)C)CC3)c2c1
0.029 |  |  | COCCOc1cc2nc(C#N)nc(NC3CCN(C(C)C)CC3)c2cc1OC
> 5 |  |  | COc1cc2nc(C#N)nc(NC3CCCC3)c2cc1OC
0.044 |  |  | COc1cc2c(NC3CCN(C(C)C)CC3)nc(C#N)nc2cc1OCCN1CCOCC1
1.2 |  |  | COc1cc2nc(C#N)nc(NC3CCN(C4CCCCC4)CC3)c2cc1OC
4.9 |  |  | COc1cc2nc(C#N)nc(NC3CCOCC3)c2cc1OC
0.271 |  |  | COc1ccc2c(NC3CCN(C(C)C)CC3)nc(C#N)nc2c1
0.377 |  |  | CC(C)N1CCC(Nc2nc(C#N)nc3ccccc23)CC1
> 5 | 99.2 | 29.9 | COc1cc2nc(-c3ccccc3)nc(NC3CCN(Cc4ccccc4)CC3)c2cc1OC

Compound | IC50 [1] [µM] | inhibition [2] [%] | inhibition [3] [%]
COc1cc2nc(C#N)nc(N(C)C3CCN(C)CC3)c2cc1OC | 3.76 |  | 
